Source: patent US20180258381A1, “BIO-LAMINA BIOREACTORS AND METHODS OF MAKING AND USING THE SAME” (Oregon State University, priority 2015, published 2018)

Experiments:
[1] = tested on: M. trichosporium OB3b culture; test: CP exposure of culture immobilized in alginate beads, sequencing batch reactors; type: cell-based; settings: for MeOH Accumulation Efficiency (MeOH accumulation/CH4 consumed): initial 24 hours of incubation with CH4
Experimental: In some embodiments, M. trichosporium OB3b culture was immobilized in alginate beads. M. trichosporium OB3b culture expressing sMMO was harvested and suspended to a final density of 10 g cell protein/L in 2% alginate. The alginate/cell mixture was extruded through a syringe needle into 100 mM CaCl2 to crosslink the alginate matrix, forming stable beads. Beads were rinsed with dH2O and re-suspended in 1/10 strength (dilute) growth media. M. trichosporium OB3b culture prepared this way is ideal for experimental manipulation such as CH4 or MeOH rate determinations after inhibitor exposure because beads can be quickly rinsed to remove trace inhibitor. OB3b culture immobilized in alginate in this way maintained activity for >7 days.
A chemostat grown, sMMO expressing, M. trichosporium OB3b culture was immobilized in alginate beads, and exposed to CP for 2, 6, and 18 hours in the absence of CH4. After inhibition, the consumption of CH4 and accumulation of MeOH was monitored in the presence and absence of 20 mM formate in sequencing batch reactors (FIGS. 37A-37C). Alginate beads were rinsed, at 24 hour intervals, before suspension in fresh media plus CH4. There was no significant difference: i) in the rate of methane consumption in the treatments that were exposed to CP for 2, 6 or 18 h (p>0.5, 30-80 μmol CH4 consumed/d, Table 2); ii) in the efficiency of MeOH accumulation in any of the treatments (Table 2); and, in the effect of formate on MeOH accumulation (P>0.18) for any exposure time, probably due to lack of complete MDH inhibition (Table 3). It was also observed that MeOH accumulated to a greater degree during days 2 and 3 in treatments after 6 or 18 hours of CP exposure.

MDH = MDH activity reactivity assay (methanol SOUR), inhibitor trials; type: cell-based, M. trichosporium OB3b
Experimental: The procedure for measuring methanol dehydrogenase (MDH) activity by measuring the specific oxygen uptake rate (SOUR) has been tested on M. trichosporium OB3b cultures grown both in batch and in the chemostat. M. trichosporium OB3b cells were harvested using centrifugation. The supernatant was poured off and the cells were re-suspended in fresh media lacking a carbon source. Phosphate buffer solution was added to a sample chamber in which dissolved oxygen (DO) was measure with a DO probe. When the DO of the solution stabilized, the re-suspended cells were added to the sample chamber to measure baseline oxygen uptake by the cells without a carbon food source present. Methanol was then added to test for MDH activity. The difference in the oxygen uptake rates illustrates the MDH activity of the culture.
Metabolic activity test methods have been developed to monitor specific activities in M. trichosporium OB3b cultures. A naphthalene oxidation assay was used to determine if sMMO is being expressed. An ethylene to ethylene oxide reaction assay and a methane oxidation assay was used to quantify MMO activity, and a methanol oxidation assay was used to estimate MDH activity. Concurrent batch metabolic tests can be conducted to investigate methanol inhibition of methane oxidation, cyclopropane to cyclopropanol conversion and concurrent/subsequent cyclopropanol inhibition of MDH activity, the effect of cyclopropanol inhibition on growth yield, and the effects of high oxygen concentration.
The effect of salts NaCl, NH4Cl and CaCl2 on MMO and MDH activity was evaluated using the reactivity assays described above.

OB3b expressing sMMO = test: Packed bed reactor with cyclopropane inhibitor; type: cell-based, Methylosinus trichosporium (OB3b)
Experimental: A Packed Bed Reactor was used to evaluate the conversion of methane to methanol by cell of OB3b expressing sMMO. […] Cyclopropanol is expected to be produced via oxidation of cyclopropane by MMO in this example.
A continuous flow PBR was constructed using a glass HPLC column with the dimensions 2.5 cm ID and 13 cm packing height. Methane, oxygen, and the inhibitor feed solutions dissolved in media were contained within the two 100 mL syringes. The column was packed with alginate beads with sMMO-expressing OB3b formed in-situ under aseptic conditions Immobilized culture performance was evaluated in the PBR over a range of flow rates to achieve reactor residence times (τ) ranging from 0.2, 0.3, 0.5, and 8.5 hours. Two separate experiments were carried out, one for methane transformation (conversion) without the cyclopropane inhibitor and the other with the inhibitor (FIG. 26). For the methane utilization studies, the influent solution was developed by adding 7 mL methane and 21 mL oxygen to the 100 ml syringes. For the inhibition studies 1 ml of cyclopropane was added. After equilibration for 20 minutes, the gases were ejected from the syringes, and the syringes connected to the column inlet.
An integrated form of the Monod equation was used to analyze the results from the PBR experiment. It relates substrate conversion across a packed bed reactor, X, to the residence time, τ (min), and initial substrate concentration So (mg/L).
The solids lines in FIG. 26 were computed with the integrated Monod model using the Ks and kmax obtained from the batch data. The simulation used an effectiveness factor (η) of 1 indicating no loss in cell activity. Good fit was obtained between the simple analytical solution, equation above, and the experimental observations for the uninhibited case. The maximum conversion was 95±0.8% at a τ of 8 hours. For the cyclopropane inhibition embodiment, the same kmax as non-inhibited case was used, but with a Ks four times the uninhibited case to investigate the plausibility of competitive inhibition.

Q: For `C1CC1` [CP, cyclopropane], which “Rates of MeOH consumption, Post Exposure” value ([1]; CP exposure 2 h) is on record?
A: 0.4 (0.0) μmol/h/mg protein

Q: What about the “MeOH Accumulation Efficiency (MeOH accumulation/CH4 consumed)” value (from here on “MeOH Accumulation Efficiency”) ([1]; CP exposure 2 h) of the same compound?
A: 19 (4) %

Q: What about the “Rates of MeOH consumption, Post Exposure” value ([1]; CP exposure 6 h) of the same compound?
A: 0.6 (0.1) μmol/h/mg protein

Q: What about the “MeOH Accumulation Efficiency” value ([1]; CP exposure 6 h) of the same compound?
A: 43 (1) %

Q: What about the “Rates of MeOH consumption, Post Exposure” value ([1]; CP exposure 18 h) of the same compound?
A: 0.3 (0.1) μmol/h/mg protein

Q: And the “MeOH Accumulation Efficiency” value ([1]; CP exposure 18 h)?
A: 13 (1) %

Q: And the “rate of methane consumption” value ([1]; treatments exposed to CP for 2, 6 or 18 h)?
A: 30-80 μmol CH4 consumed/d

Q: And the “Fraction of Activity Remaining, MDH” value (MDH; CP 03 μmol)?
A: 0.9

Q: What about the “Fraction of Activity Remaining, MDH” value (MDH; CP 32 μmol) of the same compound?
A: 0.2

Q: And the “Fraction of Activity Remaining, MDH” value (MDH; CP 64 μmol)?
A: 0.1

Q: And the “effect on methane transformation” value (OB3b expressing sMMO; cyclopropane-amended column vs uninhibited)?
A: Inhibition of methane transformation was observed

Q: And the Methane conversion (OB3b expressing sMMO; residence time 4 hours)?
A: 68±11%

Q: What about the “methanol production selectivity (percentage of methane converted to methanol)” value (OB3b expressing sMMO; residence time 4 hours) of the same compound?
A: 102±39%

Q: What about the Methane conversion (OB3b expressing sMMO; residence time 8 hours) of the same compound?
A: 95±1%

Q: What about the “methanol production selectivity (percentage of methane converted to methanol)” value (OB3b expressing sMMO; residence time 8 hours) of the same compound?
A: 91±32%
